# Laboratory results reported in patent US20120010161A1, “NOVEL AZAPEPTIDE OR AZAPEPTIDOMIMETIC COMPOUNDS INHIBITING BCRP AND/OR P-GP” (CENTRE NATIONAL DE LA RECHERCHE SCIENTIFIQUE, priority 2009, published 2012).
# Entries after “also recorded” stand apart in the source; their conditions may differ.
# Tests used:
# MRP1/ABCC1 = target: T1, MRP1/ABCC1 (Homo sapiens, UniProt P33527); assay: Flow cytometry: daunorubicin efflux induced by ABCC1 in transfected BHK21 cells; assay type: cell-based; details: probe daunorubicin (1 μM), 10 μM compound, read-out: MRP1/ABCC1 % efficacy 10 μM
# T1 construct: His; expressed in transfected cells; host or cells: BHK21 (newborn hamster kidney) transfected with pNUT-MRP/His
# T1 sequence (P33527 whole entry): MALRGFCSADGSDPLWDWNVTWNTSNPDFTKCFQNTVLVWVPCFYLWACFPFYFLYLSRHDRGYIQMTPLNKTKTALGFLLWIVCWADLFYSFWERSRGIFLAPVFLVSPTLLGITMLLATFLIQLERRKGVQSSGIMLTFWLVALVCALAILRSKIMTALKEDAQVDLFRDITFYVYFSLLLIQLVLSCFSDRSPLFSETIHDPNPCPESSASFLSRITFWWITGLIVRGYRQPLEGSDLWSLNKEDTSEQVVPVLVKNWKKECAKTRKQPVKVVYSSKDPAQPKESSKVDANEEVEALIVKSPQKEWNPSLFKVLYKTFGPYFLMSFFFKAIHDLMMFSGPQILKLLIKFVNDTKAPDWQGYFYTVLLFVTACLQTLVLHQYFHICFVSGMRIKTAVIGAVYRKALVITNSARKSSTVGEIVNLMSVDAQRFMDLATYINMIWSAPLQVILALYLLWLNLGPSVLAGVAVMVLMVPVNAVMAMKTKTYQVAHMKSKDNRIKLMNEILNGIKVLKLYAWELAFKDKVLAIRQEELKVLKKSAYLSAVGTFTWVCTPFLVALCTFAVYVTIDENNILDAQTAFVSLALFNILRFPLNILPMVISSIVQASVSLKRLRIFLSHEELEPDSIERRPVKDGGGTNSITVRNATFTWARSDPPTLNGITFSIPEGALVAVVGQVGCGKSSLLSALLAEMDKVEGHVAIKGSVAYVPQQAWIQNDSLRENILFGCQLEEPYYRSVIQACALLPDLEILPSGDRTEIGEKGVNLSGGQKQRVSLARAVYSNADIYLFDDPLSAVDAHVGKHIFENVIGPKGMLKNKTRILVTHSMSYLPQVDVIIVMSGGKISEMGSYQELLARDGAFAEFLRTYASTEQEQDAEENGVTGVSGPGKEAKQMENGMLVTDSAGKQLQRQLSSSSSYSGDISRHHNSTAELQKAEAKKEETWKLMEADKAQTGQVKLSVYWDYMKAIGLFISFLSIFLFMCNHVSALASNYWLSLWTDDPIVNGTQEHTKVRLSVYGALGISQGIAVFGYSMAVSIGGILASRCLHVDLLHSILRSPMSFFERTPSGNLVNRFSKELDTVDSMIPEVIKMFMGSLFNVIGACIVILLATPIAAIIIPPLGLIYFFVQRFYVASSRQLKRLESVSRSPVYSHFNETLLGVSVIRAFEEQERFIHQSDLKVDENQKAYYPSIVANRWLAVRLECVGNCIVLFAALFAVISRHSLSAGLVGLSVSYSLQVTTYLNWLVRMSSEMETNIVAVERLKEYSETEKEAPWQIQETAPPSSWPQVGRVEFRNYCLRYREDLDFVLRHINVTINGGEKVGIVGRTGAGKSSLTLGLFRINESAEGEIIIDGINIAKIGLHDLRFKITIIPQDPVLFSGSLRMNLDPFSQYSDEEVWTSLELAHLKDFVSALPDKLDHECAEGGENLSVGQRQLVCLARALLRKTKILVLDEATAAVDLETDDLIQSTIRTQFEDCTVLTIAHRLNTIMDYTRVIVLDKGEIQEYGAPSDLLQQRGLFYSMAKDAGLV
# Description: Cell cultures. The human […] HEK-293 transfected with the vector pcDNA3.1 including or not the gene encoding ABCG2 (Robey, R. W., Honjo, Y., Morisaki, K., Nadjem, T. A., Runge, S., Risbood, M., Poruchynsky, M. S., Bates, S. E. 2003, Br. J. Cancer 89(10) 1971-1978) was used to test the efficacy of the products on ABCG2. The newborn hamster kidney cell line BHK21 either natural (negative control) or transfected with the vector pNUT-MRP/His expressing the gene encoding ABCC1 (Chang, Xiu-Bao, Hou, Yue-Xian, Riordan, John R. 1997, J. Biol. Chem. 272(49) 30962-30968) was used to test the efficacy of the products on ABCC1. The cell line NIH3T3 natural or transfected with the vector pHaMDR1/A expressing ABCB1 (Cardarelli, Carol O., Aksentijevich, Ivan, Pastan, Ira, Gottesman, Michael M. 1995 Cancer Res. 55 1086-1091) was used to test the efficacy of the compounds on ABCB1. […]
# FIG. 1 schematically illustrates an efflux of substrate induced by a typical ABC transporter. The substrates S, such as mitoxantrone effluxed with ABCG2 and ABCB1 or daunorubicin effluxed with ABCC1, are accumulated in the cells and expelled by the transporter T, leading to a decrease in intracellular fluorescence. In the case of accumulation of the product, typically by inhibition of the efflux protein, the intracellular fluorescence increases.
# Flow cytometry. […] The drug intracellular fluorescence is measured with a FACscan flow cytometer (Becton Dickinson, Mountain View, Calif.). The fluorescent substrates are excited at 488 nm; the fluorescence emission of mitoxantrone (MTX) is measured at 650 nm and that of daunorubicin is measured at 530 nm. […]
# in which: • FA corresponds to the intracellular level of substrate measured in the cells overexpressing the transporter T (corresponding to the lowest level of fluorescence in the absence of inhibitor), • FC corresponds to the fluorescence in the control cells not expressing the test transporter. […]
# [1] = tested on: HEK-293 cells expressing ABCG2; assay: Chemosensitization to mitoxantrone, cell growth test (MTT); assay type: cell-based, human; details: 5 μM compound, 72 hours, compared with cells not expressing ABCG2
# Procedure: The cells are seeded (10 000 cells/well) in 96-well plates and incubated for 24 hours at 37° C. under 5% CO2. Varied concentrations of mitoxantrone (from 0 to 20 μM in a constant final volume of 100 μL) are then added with an equal volume of each of the test compounds. The cells are then left to divide for 72 hours. The cytotoxicity is evaluated colorimetrically with 3-(4,5-dimethylthiazol-2-yl)-2,5-diphenyltetrazolium bromide (MTT).
# Increasing concentrations of mitoxantrone (MTX) are applied to HEK-293 cells expressing or not expressing ABCG2 and subjected or not subjected to a treatment with 5 μM of compound (IA.2), and whose residual vitality is evaluated after 72 hours of treatment by an MIT test. The results are illustrated in FIG. 3, in which the cells expressing ABCG2 are represented by circles, and those not expressing it by squares; those that are treated with 5 μM of (IA.2), i.e. five times its IC50, appear as empty symbols, whereas those that are not treated with (IA.2) appear as solid symbols. […] Compound (IA.2) thus appears to be a very efficient chemosensitizer.
# Increasing concentrations of mitoxantrone (MTX) are applied to HEK-293 cells expressing or not expressing ABCG2 and subjected or not subjected to a treatment with 5 μM of compound (IA.1), and whose residual vitality is evaluated after 72 hours of treatment by an MTT test. The results are illustrated in FIG. 5, in which the cells expressing ABCG2 are represented by circles, and those not expressing it by squares; those that are treated with 5 μM of (IA.1), i.e. 2.5 times its IC50, appear as empty symbols, whereas those that are not treated with (IA.1) appear as solid symbols. […]
# Increasing concentrations of mitoxantrone (MTX) are applied to HEK-293 cells expressing or not expressing ABCG2 and subjected or not subjected to a treatment with 5 μM of compound (IB.1), and whose residual vitality is evaluated after 72 hours of treatment by an MTT test. […]
SMILES,inhibition at 10 μM (MRP1/ABCC1) [%],chemosensitization: restoration of mitoxantrone sensitivity [1]
"CC(C)(C)OC(=O)NN(C(=O)N[C@@H](CCCCNC(=O)OCc1ccccc1)C(=O)OC(C)(C)C)c1ccccc1C(=O)OCc1ccccc1 [IA.1, tert-Butyl ester of (2S)-6-(benzyloxycarbonylamino)-2-[1-(2′-(benzyloxycarbonyl)phenyl)-2-(tert-butoxycarbonyl)hydrazino-carbonylamino]hexanoic acid]",14 ± 3,chemosensitization; also recorded: restores virtually full mitoxantrone sensitivity
"CC(C)(C)OC(=O)NN(C(=O)N[C@@H](CCCCNC(=O)OCc1ccccc1)C(=O)OC(C)(C)C)c1cccc(C(=O)OCc2ccccc2)c1 [IA.2, tert-Butyl ester of (2S)-6-(benzyloxycarbonylamino)-2-[1-(3′-(benzyloxycarbonyl)phenyl)-2-(tert-butoxycarbonyl)hydrazino-carbonylamino]hexanoic acid]",5 ± 1,chemosensitization; also recorded: restores mitoxantrone sensitivity equal to that observed in the control cells
"CC(C)(C)OC(=O)N[C@H](CNN(CCCCCCNC(=O)OCc1ccccc1)C(=O)OC(C)(C)C)CC(=O)OCc1ccccc1 [IB.1, Benzyl ester of (3S)-4-[2-(6-benzyloxycarbonylaminohexyl)-2-tert-butoxycarbonylhydrazino]-3-tert-butoxycarbonylaminobutyric acid]",5 ± 1,chemosensitization; also recorded: virtually full restoration of mitoxantrone sensitivity
